{"source": "paper PMC3119665", "about": "“A New Drug Design Targeting the Adenosinergic System for Huntington's Disease” (PLoS ONE, 2011)", "key": {"[1]": {"system": "Tumor Necrosis Factor (TNF), Non-Selective", "experiment": "Radioligand binding panel (Table S1)", "set-up": "species or system human", "details": "10 μM T1-11, n 2"}, "[2]": {"system": "Glutamate, NMDA, Polyamine", "experiment": "Radioligand binding panel (Table S1)", "set-up": "species or system rat", "details": "10 μM T1-11, n 2"}, "[3]": {"molecular_target": "T1, N-Formyl Peptide Receptor-like, FPRL1 (Homo sapiens, UniProt P25090)", "T1 construct": "purchased MDS Pharma Services Taiwan", "T1 sequence (P25090 whole entry)": "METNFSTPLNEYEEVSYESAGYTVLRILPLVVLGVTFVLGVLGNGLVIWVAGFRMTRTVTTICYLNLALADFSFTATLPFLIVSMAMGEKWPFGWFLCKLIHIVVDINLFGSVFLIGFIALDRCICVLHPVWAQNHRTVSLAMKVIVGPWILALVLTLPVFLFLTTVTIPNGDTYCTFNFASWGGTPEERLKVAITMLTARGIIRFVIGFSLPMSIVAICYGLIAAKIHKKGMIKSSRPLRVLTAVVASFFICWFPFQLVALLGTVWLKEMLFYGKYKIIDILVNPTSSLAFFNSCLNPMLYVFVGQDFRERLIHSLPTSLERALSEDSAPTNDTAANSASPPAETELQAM", "experiment": "Radioligand binding panel (Table S1)", "details": "10 μM T1-11, n 2"}, "Tachykinin NK3": {"molecular_target": "T2, Tachykinin NK3 (Homo sapiens, UniProt P29371)", "T2 construct": "purchased MDS Pharma Services Taiwan", "experiment": "Radioligand binding panel (Table S1)", "details": "10 μM T1-11, n 2"}, "Phosphodiesterase PDE1": {"system": "Phosphodiesterase PDE1", "experiment": "Radioligand binding panel (Table S1)", "set-up": "species or system human", "details": "10 μM T1-11, n 2"}, "Sodium Channel, Site 2": {"system": "Sodium Channel, Site 2", "experiment": "Radioligand binding panel (Table S1)", "set-up": "species or system rat", "details": "10 μM T1-11, n 2"}, "Angiotensin AT2": {"molecular_target": "T3, Angiotensin AT2 (Homo sapiens, UniProt P50052)", "T3 construct": "purchased MDS Pharma Services Taiwan", "experiment": "Radioligand binding panel (Table S1)", "details": "10 μM T1-11, n 2"}, "Chemokine CXCR2 (IL-8RB)": {"molecular_target": "T4, Chemokine CXCR2 (IL-8RB) (Homo sapiens, UniProt P25025)", "T4 construct": "purchased MDS Pharma Services Taiwan", "T4 sequence (P25025 whole entry)": "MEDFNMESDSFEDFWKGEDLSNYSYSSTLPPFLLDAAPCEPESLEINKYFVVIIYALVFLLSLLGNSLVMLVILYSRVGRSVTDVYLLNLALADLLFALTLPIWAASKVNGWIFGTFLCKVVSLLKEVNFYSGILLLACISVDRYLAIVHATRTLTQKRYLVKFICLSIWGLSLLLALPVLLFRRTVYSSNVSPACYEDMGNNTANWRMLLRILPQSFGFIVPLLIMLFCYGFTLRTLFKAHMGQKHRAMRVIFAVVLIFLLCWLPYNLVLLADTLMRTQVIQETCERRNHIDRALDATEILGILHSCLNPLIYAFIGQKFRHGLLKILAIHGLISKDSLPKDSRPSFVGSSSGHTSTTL", "experiment": "Radioligand binding panel (Table S1)", "details": "10 μM T1-11, n 2"}, "Neuromedin U NMU2": {"molecular_target": "T5, Neuromedin U NMU2 (Homo sapiens, UniProt Q9GZQ4)", "T5 construct": "purchased MDS Pharma Services Taiwan", "experiment": "Radioligand binding panel (Table S1)", "details": "10 μM T1-11, n 2"}, "[4]": {"molecular_target": "T6, Serotonin (5-Hydroxytryptamine) 5-HT1A (Homo sapiens, UniProt P08908)", "T6 construct": "purchased MDS Pharma Services Taiwan", "T6 sequence (P08908 whole entry)": "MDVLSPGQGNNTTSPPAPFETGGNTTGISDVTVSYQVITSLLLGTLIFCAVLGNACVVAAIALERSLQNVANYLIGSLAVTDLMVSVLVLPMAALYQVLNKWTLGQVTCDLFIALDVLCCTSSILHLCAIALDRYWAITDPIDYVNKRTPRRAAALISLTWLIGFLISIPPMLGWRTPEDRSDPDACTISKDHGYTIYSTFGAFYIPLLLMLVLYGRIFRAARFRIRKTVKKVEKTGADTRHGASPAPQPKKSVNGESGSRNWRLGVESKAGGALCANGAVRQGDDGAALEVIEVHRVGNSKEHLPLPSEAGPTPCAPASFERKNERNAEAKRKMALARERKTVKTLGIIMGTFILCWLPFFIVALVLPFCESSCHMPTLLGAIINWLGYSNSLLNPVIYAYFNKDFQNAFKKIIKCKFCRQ", "experiment": "Radioligand binding panel (Table S1)", "details": "10 μM T1-11, n 2"}, "Calcitonin": {"molecular_target": "T7, Calcitonin (Homo sapiens, UniProt P30988)", "T7 construct": "purchased MDS Pharma Services Taiwan", "T7 sequence (P30988 25-474)": "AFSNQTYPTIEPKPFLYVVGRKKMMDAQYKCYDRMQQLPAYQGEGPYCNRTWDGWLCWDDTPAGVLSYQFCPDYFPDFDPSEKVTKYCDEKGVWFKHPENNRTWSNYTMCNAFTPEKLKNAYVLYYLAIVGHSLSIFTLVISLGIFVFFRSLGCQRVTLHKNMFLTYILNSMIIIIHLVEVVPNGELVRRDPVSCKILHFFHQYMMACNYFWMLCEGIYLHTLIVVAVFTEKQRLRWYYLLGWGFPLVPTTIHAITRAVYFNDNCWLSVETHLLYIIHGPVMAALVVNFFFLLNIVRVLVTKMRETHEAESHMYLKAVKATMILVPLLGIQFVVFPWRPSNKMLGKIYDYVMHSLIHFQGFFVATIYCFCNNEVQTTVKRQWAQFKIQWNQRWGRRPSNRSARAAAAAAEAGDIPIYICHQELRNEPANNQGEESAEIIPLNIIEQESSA", "experiment": "Radioligand binding panel (Table S1)", "details": "10 μM T1-11, n 2"}, "[5]": {"system": "Adrenergic α 1, Non-Selective", "experiment": "Radioligand binding panel (Table S1)", "set-up": "species or system rat", "details": "10 μM T1-11, n 2"}, "Lipoxygenase 12-LO": {"molecular_target": "T8, Lipoxygenase 12-LO (Homo sapiens, UniProt P18054)", "T8 construct": "purchased MDS Pharma Services Taiwan", "experiment": "Radioligand binding panel (Table S1)", "details": "10 μM T1-11, n 2"}, "R6/2 mice": {"system": "R6/2 mice", "experiment": "In vivo 3D MRI imaging of brain atrophy in R6/2 mice", "details": "0.05 mg/ml in drinking water, five weeks", "description": "Supplementary file pone.0020934.s005.tif: Figure S5 Effect of T1-11 on the shorten lifespan and enlarged ventricle of R6/2 mice. Animals were given the vehicle (1% DMSO; CON) or T1-11 (0.05 mg/ml)-containing drinking water from the age of 7 weeks. (A) Survival was assessed. Specific comparison to R6/2 mice treated with the vehicle (p = 0.306; Mantel-Cox test). (B) Five weeks after T1-11 treatment, 3D-lMRI was performed to determine the ventricle-to-brain ratio of the indicated animals as described. * p<0.05. (TIF) Click here for additional data file."}, "Purinergic P 2Y": {"system": "Purinergic P 2Y", "experiment": "Radioligand binding panel (Table S1)", "set-up": "species or system rat", "details": "10 μM T1-11, n 2"}, "Dopamine D2L": {"molecular_target": "T9, Dopamine D2L (Homo sapiens, UniProt P14416)", "T9 construct": "purchased MDS Pharma Services Taiwan", "T9 sequence (P14416 whole entry)": "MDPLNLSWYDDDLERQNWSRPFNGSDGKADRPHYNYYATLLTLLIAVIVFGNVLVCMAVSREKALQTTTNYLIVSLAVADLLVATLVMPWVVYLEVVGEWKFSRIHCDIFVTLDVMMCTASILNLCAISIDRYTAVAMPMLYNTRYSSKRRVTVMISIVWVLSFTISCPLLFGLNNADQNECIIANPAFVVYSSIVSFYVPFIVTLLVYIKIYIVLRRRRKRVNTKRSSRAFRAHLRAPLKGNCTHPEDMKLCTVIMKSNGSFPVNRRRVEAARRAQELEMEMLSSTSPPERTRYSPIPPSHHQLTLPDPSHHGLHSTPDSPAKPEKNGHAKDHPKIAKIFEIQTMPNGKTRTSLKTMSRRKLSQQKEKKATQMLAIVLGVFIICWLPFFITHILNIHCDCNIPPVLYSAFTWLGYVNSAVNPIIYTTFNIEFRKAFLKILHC", "experiment": "Radioligand binding panel (Table S1)", "details": "10 μM T1-11, n 2"}, "Muscarinic M1": {"molecular_target": "T10, Muscarinic M1 (Homo sapiens, UniProt P11229)", "T10 construct": "purchased MDS Pharma Services Taiwan", "T10 sequence (P11229 whole entry)": "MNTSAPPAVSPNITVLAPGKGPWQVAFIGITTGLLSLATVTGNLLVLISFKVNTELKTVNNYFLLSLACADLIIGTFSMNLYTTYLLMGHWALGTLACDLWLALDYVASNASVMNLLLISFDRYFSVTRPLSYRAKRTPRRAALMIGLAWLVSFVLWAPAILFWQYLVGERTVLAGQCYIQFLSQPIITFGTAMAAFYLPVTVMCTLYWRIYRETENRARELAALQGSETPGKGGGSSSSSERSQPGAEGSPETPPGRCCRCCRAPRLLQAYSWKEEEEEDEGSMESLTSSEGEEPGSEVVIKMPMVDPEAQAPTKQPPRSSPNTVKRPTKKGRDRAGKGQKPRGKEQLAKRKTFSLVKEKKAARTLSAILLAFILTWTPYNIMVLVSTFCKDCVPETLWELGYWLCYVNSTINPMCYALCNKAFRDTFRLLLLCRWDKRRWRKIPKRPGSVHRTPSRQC", "experiment": "Radioligand binding panel (Table S1)", "details": "10 μM T1-11, n 2"}, "[6]": {"system": "Muscarinic, Non-Selective, Central", "experiment": "Radioligand binding panel (Table S1)", "set-up": "species or system rat", "details": "10 μM T1-11, n 2"}, "[7]": {"molecular_target": "T11, Leukotriene, Cysteinyl CysLT2 (Homo sapiens, UniProt Q9NS75)", "T11 construct": "purchased MDS Pharma Services Taiwan", "experiment": "Radioligand binding panel (Table S1)", "details": "10 μM T1-11, n 2"}, "Prostanoid CRTH2": {"molecular_target": "T12, Prostanoid CRTH2 (Homo sapiens, UniProt Q9Y5Y4)", "T12 construct": "purchased MDS Pharma Services Taiwan", "T12 sequence (Q9Y5Y4 whole entry)": "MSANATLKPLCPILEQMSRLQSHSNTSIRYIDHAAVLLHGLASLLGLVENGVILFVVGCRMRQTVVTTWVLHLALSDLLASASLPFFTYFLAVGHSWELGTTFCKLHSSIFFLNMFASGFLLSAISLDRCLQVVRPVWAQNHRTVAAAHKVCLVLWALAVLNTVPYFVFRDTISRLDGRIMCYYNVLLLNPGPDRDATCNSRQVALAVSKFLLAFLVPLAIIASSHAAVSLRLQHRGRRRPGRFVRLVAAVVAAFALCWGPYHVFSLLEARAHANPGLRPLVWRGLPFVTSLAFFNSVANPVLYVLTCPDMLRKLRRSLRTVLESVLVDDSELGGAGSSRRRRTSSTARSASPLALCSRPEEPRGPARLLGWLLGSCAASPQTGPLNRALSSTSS", "experiment": "Radioligand binding panel (Table S1)", "details": "10 μM T1-11, n 2"}, "Transporter, Monoamine": {"system": "Transporter, Monoamine", "experiment": "Radioligand binding panel (Table S1)", "set-up": "species or system rabbit", "details": "10 μM T1-11, n 2"}, "Somatostatin sst5": {"molecular_target": "T13, Somatostatin sst5 (Homo sapiens, UniProt P35346)", "T13 construct": "purchased MDS Pharma Services Taiwan", "T13 sequence (P35346 whole entry)": "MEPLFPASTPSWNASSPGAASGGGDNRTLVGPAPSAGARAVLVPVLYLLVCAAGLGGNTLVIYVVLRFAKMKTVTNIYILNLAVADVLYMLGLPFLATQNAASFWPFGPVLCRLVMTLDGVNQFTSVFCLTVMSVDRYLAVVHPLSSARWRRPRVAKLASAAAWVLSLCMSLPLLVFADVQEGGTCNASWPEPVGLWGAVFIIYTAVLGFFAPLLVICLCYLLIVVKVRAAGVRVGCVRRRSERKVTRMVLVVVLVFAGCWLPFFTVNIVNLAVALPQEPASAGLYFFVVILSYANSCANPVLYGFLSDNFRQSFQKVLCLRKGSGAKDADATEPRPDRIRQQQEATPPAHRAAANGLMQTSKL", "experiment": "Radioligand binding panel (Table S1)", "details": "10 μM T1-11, n 2"}, "Chemokine CCR2B": {"molecular_target": "T14, Chemokine CCR2B (Homo sapiens, UniProt P41597)", "T14 construct": "purchased MDS Pharma Services Taiwan", "experiment": "Radioligand binding panel (Table S1)", "details": "10 μM T1-11, n 2"}, "Interleukin IL-2": {"molecular_target": "T15, Interleukin IL-2 (Mus musculus, UniProt P01590+P16297+P34902)", "T15 construct": "purchased MDS Pharma Services Taiwan", "T15 sequence (P01590 22-268)": "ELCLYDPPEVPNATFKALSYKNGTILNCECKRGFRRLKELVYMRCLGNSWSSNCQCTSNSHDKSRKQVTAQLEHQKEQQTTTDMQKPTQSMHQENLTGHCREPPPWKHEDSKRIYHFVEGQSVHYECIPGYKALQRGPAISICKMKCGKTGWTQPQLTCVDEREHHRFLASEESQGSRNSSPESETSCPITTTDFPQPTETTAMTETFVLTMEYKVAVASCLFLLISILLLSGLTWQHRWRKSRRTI", "T15 sequence (P16297 27-539)": "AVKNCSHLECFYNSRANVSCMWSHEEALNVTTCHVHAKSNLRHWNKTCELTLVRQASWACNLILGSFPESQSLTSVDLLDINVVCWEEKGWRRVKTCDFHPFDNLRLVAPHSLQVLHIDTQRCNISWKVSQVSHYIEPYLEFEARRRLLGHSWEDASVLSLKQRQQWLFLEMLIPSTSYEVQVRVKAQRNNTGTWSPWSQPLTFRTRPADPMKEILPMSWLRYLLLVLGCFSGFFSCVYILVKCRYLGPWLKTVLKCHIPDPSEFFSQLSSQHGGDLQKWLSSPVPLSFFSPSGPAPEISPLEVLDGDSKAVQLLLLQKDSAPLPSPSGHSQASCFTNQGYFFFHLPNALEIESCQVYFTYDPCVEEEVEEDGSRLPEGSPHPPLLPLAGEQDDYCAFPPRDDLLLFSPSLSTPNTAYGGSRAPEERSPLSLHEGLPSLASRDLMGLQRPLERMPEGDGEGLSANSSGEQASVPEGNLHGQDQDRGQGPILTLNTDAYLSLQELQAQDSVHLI", "T15 sequence (P34902 23-369)": "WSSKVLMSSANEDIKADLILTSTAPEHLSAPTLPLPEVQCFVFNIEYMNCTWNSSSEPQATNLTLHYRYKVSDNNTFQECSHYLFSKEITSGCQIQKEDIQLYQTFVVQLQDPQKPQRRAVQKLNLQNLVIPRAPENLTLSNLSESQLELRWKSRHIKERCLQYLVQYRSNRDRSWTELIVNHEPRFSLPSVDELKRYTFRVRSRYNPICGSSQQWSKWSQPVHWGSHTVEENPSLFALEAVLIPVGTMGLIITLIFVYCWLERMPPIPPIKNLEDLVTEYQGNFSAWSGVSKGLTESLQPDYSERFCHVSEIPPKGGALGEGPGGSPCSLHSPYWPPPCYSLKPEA", "experiment": "Radioligand binding panel (Table S1)", "details": "10 μM T1-11, n 2"}, "Muscarinic M2": {"molecular_target": "T16, Muscarinic M2 (Homo sapiens, UniProt P08172)", "T16 construct": "purchased MDS Pharma Services Taiwan", "T16 sequence (P08172 whole entry)": "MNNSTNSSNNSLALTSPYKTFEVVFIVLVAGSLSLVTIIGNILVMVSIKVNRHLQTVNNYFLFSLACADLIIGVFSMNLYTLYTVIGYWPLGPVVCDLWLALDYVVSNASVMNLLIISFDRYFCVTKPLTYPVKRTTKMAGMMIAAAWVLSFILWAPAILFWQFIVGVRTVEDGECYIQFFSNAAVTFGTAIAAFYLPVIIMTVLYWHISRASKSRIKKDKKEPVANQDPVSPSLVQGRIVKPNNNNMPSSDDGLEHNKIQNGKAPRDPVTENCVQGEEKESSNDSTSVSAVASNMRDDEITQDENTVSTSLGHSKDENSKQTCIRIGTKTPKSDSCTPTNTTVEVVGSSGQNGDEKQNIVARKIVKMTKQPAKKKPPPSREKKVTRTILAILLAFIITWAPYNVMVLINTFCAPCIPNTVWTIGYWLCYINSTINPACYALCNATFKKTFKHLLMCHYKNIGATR", "experiment": "Radioligand binding panel (Table S1)", "details": "10 μM T1-11, n 2"}, "[8]": {"system": "Calcium Channel L-Type, Dihydropyridine", "experiment": "Radioligand binding panel (Table S1)", "set-up": "species or system rat", "details": "10 μM T1-11, n 2"}, "Motilin": {"molecular_target": "T17, Motilin (Homo sapiens, UniProt O43193)", "T17 construct": "purchased MDS Pharma Services Taiwan", "experiment": "Radioligand binding panel (Table S1)", "details": "10 μM T1-11, n 2"}, "Estrogen ERβ": {"molecular_target": "T18, Estrogen ERβ (Homo sapiens, UniProt Q92731)", "T18 construct": "purchased MDS Pharma Services Taiwan", "experiment": "Radioligand binding panel (Table S1)", "details": "10 μM T1-11, n 2"}, "Phosphodiesterase PDE5": {"molecular_target": "T19, Phosphodiesterase PDE5 (Homo sapiens, UniProt O76074)", "T19 construct": "purchased MDS Pharma Services Taiwan", "experiment": "Radioligand binding panel (Table S1)", "details": "10 μM T1-11, n 2"}, "Histamine H3": {"molecular_target": "T20, Histamine H3 (Homo sapiens, UniProt Q9Y5N1)", "T20 construct": "purchased MDS Pharma Services Taiwan", "experiment": "Radioligand binding panel (Table S1)", "details": "10 μM T1-11, n 2"}, "[9]": {"experiment": "T1-11 level in the brain after intraperitoneal injection", "assay_type": "in vivo, mice", "details": "mouse, ip, 5 mg/kg, 30 min after the intraperitoneal injection, n = 4, mean ± s.e.m., read-out: T1-11 detected in the brain"}}, "data": [{"molecule": "OC[C@H]1O[C@@H](n2cnc3c(NCc4ccc(O)cc4)ncnc32)[C@H](O)[C@@H]1O", "note": "[T1-11, N ^6-(4-hydroxybenzyl)adenine riboside]", "values": [{"measurement": "% Inhibition", "setting": "[1]", "result": -2, "unit": "%"}, {"measurement": "% Inhibition", "setting": "[2]", "result": 10, "unit": "%"}, {"measurement": "inhibition at 10 µM", "setting": "[3]", "result": 5, "unit": "%"}, {"measurement": "inhibition at 10 µM", "setting": "Tachykinin NK3", "result": -3, "unit": "%"}, {"measurement": "% Inhibition", "setting": "Phosphodiesterase PDE1", "result": 17, "unit": "%"}, {"measurement": "% Inhibition", "setting": "Sodium Channel, Site 2", "result": 3, "unit": "%"}, {"measurement": "inhibition at 10 µM", "setting": "Angiotensin AT2", "result": 3, "unit": "%"}, {"measurement": "inhibition at 10 µM", "setting": "Chemokine CXCR2 (IL-8RB)", "result": 0, "unit": "%"}, {"measurement": "inhibition at 10 µM", "setting": "Neuromedin U NMU2", "result": 5, "unit": "%"}, {"measurement": "inhibition at 10 µM", "setting": "[4]", "result": 9, "unit": "%"}, {"measurement": "inhibition at 10 µM", "setting": "Calcitonin", "result": 15, "unit": "%"}, {"measurement": "% Inhibition", "setting": "[5]", "result": -3, "unit": "%"}, {"measurement": "inhibition at 10 µM", "setting": "Lipoxygenase 12-LO", "result": 9, "unit": "%"}, {"measurement": "Brain atrophy (3D MRI)", "setting": "R6/2 mice", "result": "slightly ameliorated the brain atrophy of R6/2 mice but the improvement did not reach statistic significance"}, {"measurement": "% Inhibition", "setting": "Purinergic P 2Y", "result": 17, "unit": "%"}, {"measurement": "inhibition at 10 µM", "setting": "Dopamine D2L", "result": 13, "unit": "%"}, {"measurement": "inhibition at 10 µM", "setting": "Muscarinic M1", "result": -1, "unit": "%"}, {"measurement": "% Inhibition", "setting": "[6]", "result": 12, "unit": "%"}, {"measurement": "inhibition at 10 µM", "setting": "[7]", "result": 10, "unit": "%"}, {"measurement": "inhibition at 10 µM", "setting": "Prostanoid CRTH2", "result": 0, "unit": "%"}, {"measurement": "% Inhibition", "setting": "Transporter, Monoamine", "result": -6, "unit": "%"}, {"measurement": "inhibition at 10 µM", "setting": "Somatostatin sst5", "result": 4, "unit": "%"}, {"measurement": "inhibition at 10 µM", "setting": "Chemokine CCR2B", "result": 0, "unit": "%"}, {"measurement": "inhibition at 10 µM", "setting": "Interleukin IL-2", "result": 0, "unit": "%"}, {"measurement": "inhibition at 10 µM", "setting": "Muscarinic M2", "result": 4, "unit": "%"}, {"measurement": "% Inhibition", "setting": "[8]", "result": -4, "unit": "%"}, {"measurement": "inhibition at 10 µM", "setting": "Motilin", "result": -2, "unit": "%"}, {"measurement": "inhibition at 10 µM", "setting": "Estrogen ERβ", "result": 40, "unit": "%"}, {"measurement": "inhibition at 10 µM", "setting": "Phosphodiesterase PDE5", "result": 4, "unit": "%"}, {"measurement": "inhibition at 10 µM", "setting": "Histamine H3", "result": 4, "unit": "%"}, {"measurement": "concentration at 30 min", "setting": "[9]", "result": "0.12 ± 0.01", "unit": "ng/g"}]}]}
